Laboratory results: ChEMBL document CHEMBL3507680, “University of Dundee, Gates Library screen for HepG2 cell viability”

Assay: Human HepG2 cell viability assay in 384 well format
Assay type: toxicity, cell-based
Parameters: dose 125 nL, time 70.5 hour; concentration not given beside the values
Conditions: HepG2 cells, read-out: Inhibition

Compound | cytotoxicity at 70.5 h
COc1ccc(C(=O)N2CCC(Nc3cccnn3)CC2)cn1 | 13.7%
CCc1n[nH]c(C2CN(C(=O)c3ccc(NC4CC4)nc3)CCO2)n1 (centres undefined) | -7.92%
Cc1cnn(CC2CCCN2C(=O)c2cc(O)nc3ccccc23)c1 (centres undefined) | -7.86%
Cc1nc(CN2CCCN(C(=O)c3sccc3C#N)CC2)cs1 | 0.736%
O=C(c1sccc1C1CC1)N1CCN(Cc2cscn2)CC1 | 5.77%
CC(Cn1cccn1)NC(=O)NCc1ccoc1 (centres undefined) | -10.1%
CC(C)NC(=O)NCc1ccc(C(=O)NC(C)Cn2cccn2)cc1 (centres undefined) | -13.2%
Cc1ccc(CNC(=O)NC(C)Cn2cccn2)cn1 (centres undefined) | -9.6%
Cc1ccoc1C(=O)NC1CCN(C(=O)Nc2ccccn2)CC1 | -5.66%
COc1ccccc1C(=O)N(C)Cc1nnc2ccccn12 | -14%
COc1ccc(OC)c(C(=O)N(C)Cc2nnc3ccccn23)c1 | -15.1%
Cn1ccnc1CN1CCN(CC(O)c2cc(F)ccc2F)CC1 (centres undefined) | -10.1%
CC(c1cccc(F)c1)N1CCN(Cc2nccn2C)CC1 (centres undefined) | -9.9%
CC(C)c1nc2c(n1C)CCN(CC(=O)Nc1ccnn1C(C)C)C2 | 0.248%
COc1ccc(OCCC(=O)N2CCCC2Cn2cccn2)cc1 (centres undefined) | 0.4%
O=C(c1ccc(O)nc1)N1CCC(Nc2cccnn2)CC1 | -8.37%
Cc1cnn(CC2CN(Cc3nc4cccnc4[nH]3)CCO2)c1 (centres undefined) | 7.51%
CN(Cc1cnn(C)c1)CC1CCCN1c1cccnn1 (centres undefined) | -4.73%
CN1CCN(C2CCN(Cc3nnc(C(C)(C)C)o3)CC2)C1=O | -1.9%
CC(=O)Nc1nc(CN2CCOC(Cn3cncn3)C2)cs1 (centres undefined) | -5.38%
COCc1nc(C(=O)N2CCCC2Cn2cc(C)cn2)cs1 (centres undefined) | -6.43%

Compound | cytotoxicity at 70.5 h
O=C(NCCCNc1ccc(C(F)(F)F)cn1)c1ccc(F)cc1F | -4.42%
O=C(NCCNc1ccc(C(F)(F)F)cn1)c1cc(Cl)ccc1F | -4.63%
COCCN1CC(C(=O)NCc2cccnc2-n2cccn2)CC1=O (centres undefined) | -7.22%
CC(C)CN1CC(C(=O)NCc2cccnc2-n2cccn2)CC1=O (centres undefined) | -8.02%
O=C(CCn1cncn1)NCC(c1ccco1)N1CCCCC1 (centres undefined) | 7%
O=C(c1cc(F)ccc1F)C1CCN(C(=O)c2cnccn2)CC1 | -4.44%
CC(C)N(Cc1cccc(Cl)c1)Cc1nc2c(cnn2C)c(=O)[nH]1 | 6.79%
CCN(Cc1ccc(F)c(F)c1)Cc1nc2c(cnn2C)c(=O)[nH]1 | -4.48%
Cc1cnc(C(=O)N2CCC(C(=O)c3cc(F)ccc3F)CC2)cn1 | -5.07%
Cc1cccc(C(=O)N2CCC(C(=O)c3cc(F)ccc3F)CC2)n1 | -7.52%
O=C(NCCc1ccn(-c2ccccc2)n1)N1CCCC(O)C1 (centres undefined) | 1.8%
Cc1cnn(CC2CCCCN2C(=O)c2ccc3[nH]cnc3c2)c1 (centres undefined) | 8.11%
O=C(CNCCn1cccn1)NCC1(c2ccccc2)CCC1 | 1.86%
O=C(CCCc1cccs1)N1CCC(N2CCNC2=O)CC1 | 22.1%
CCc1csc(C2CCCN(C(=O)c3ccc4[nH]nnc4c3)C2)n1 (centres undefined) | -0.976%
O=C(CCc1cccs1)N1CCCC(N2CCNC2=O)C1 (centres undefined) | -5.71%
CCc1nc(C2CCCN(C(=O)c3ccc(OC)cc3)C2)no1 (centres undefined) | 0.812%
CCn1c(C)nnc1CN(C)C1CCN(CCCSC)C1 (centres undefined) | 26.5%
CC(=O)N(Cc1ncc(C)o1)C1CCN(Cc2sc(C)nc2C)C1 (centres undefined) | -3.28%
CCCc1n[nH]c(C2CN(C(=O)c3ccnc(C4CC4)n3)CCO2)n1 (centres undefined) | -1.45%
CCCc1nc(CNCC2CCCN2c2cccnn2)no1 (centres undefined) | 22.6%

Compound | cytotoxicity at 70.5 h
CCc1noc(CNCC2CCCN2c2cccnn2)n1 (centres undefined) | 1.91%
CC(C)(C)C(=O)NCCc1ccn(-c2ccccc2)n1 | -17.1%
CC(C)c1nc(CCNC(=O)NCc2ccnc(N(C)C)c2)cs1 | -10.2%
Cn1ccc(CN2CCC(COC3CCCC3)CC2)cc1=O | -11%
O=C(CCN1CCOC(Cn2cccn2)C1)NC1CCCC1 (centres undefined) | 17.5%
Cc1cnn(CC2CCCN2C(=O)c2cnc3n[nH]c(C)c3c2)c1 (centres undefined) | 15.1%
Cc1nc(C2CCCN(C(=O)c3cnn(C(C)(C)C)c3)C2)no1 (centres undefined) | 23.3%
Cc1ccc(CC(=O)N2CCCCC2c2nc(C)cs2)cn1 (centres undefined) | -14.4%
Cc1nc(C2CCCN(C(=O)c3ccc(N4CCCC4)nc3)C2)no1 (centres undefined) | 1.03%
Cc1cn2nc(N3CCCC3CC(C)(C)C)sc2n1 (centres undefined) | -4.57%
CCn1cc(C(=O)NCc2csc(Br)c2)cn1 | -11.6%
CC(c1nc(C2CC2)no1)N1CCN(Cc2ccccc2F)CC1 (centres undefined) | -6.67%
Cc1ccc(N2CCCC(NCc3nc(C)c(C)o3)C2)nn1 (centres undefined) | -14.3%
Cc1cnn(C2CCCN(C(=O)CCCOc3cccc(F)c3)C2)c1 (centres undefined) | 0.97%
Cc1cc(C(=O)N2CCCC(n3cncn3)C2)c(C)n1C1CC1 (centres undefined) | -1.59%
Cc1cnn(CC2CCCN2Cc2nccn2C)c1 (centres undefined) | 13.6%
COc1c(CNCc2ccc(CN(C)C)cc2)c(C)nn1C | -4.98%
COc1ccc(CN(C)CC2CCCN2c2cccnn2)cc1F (centres undefined) | 44.2%
CN(Cc1cccnc1)CC1CCCN1c1cccnn1 (centres undefined) | 13.1%
CC(=O)N(C)c1nc(CN2CCOC(Cn3cc(C)cn3)C2)cs1 (centres undefined) | 13.6%
CCN1CCN(C2CCN(Cc3nc4ccccc4o3)CC2)C1=O | -8.04%

Compound | cytotoxicity at 70.5 h
Cn1ccnc1CN1CCN(CC(O)c2ccco2)CC1 (centres undefined) | -25.9%
O=C(c1cc(F)ccc1F)C1CCN(C(=O)c2ccccn2)CC1 | -12.2%
Cc1nc(CN2CCN(C(=O)c3cc(C4CC4)on3)CC2)cs1 | -14.7%
Cc1cc(S(=O)(=O)NCc2cccc(C(=O)N3CCCC3)c2)c(C)s1 | -0.781%
O=C(CCc1ccccc1)N1CCC(N2CCNC2=O)CC1 | -8.47%
Cc1cnn(CC2CCCN2C(=O)c2nccc3ccccc23)c1 (centres undefined) | -15.9%
O=C(NCC(O)CN1CCc2ccccc2C1)Nc1cccnc1 (centres undefined) | -17.4%
O=C(c1cccc(CNS(=O)(=O)c2ccccc2F)c1)N1CCCC1 | -16.2%
Cc1cnn(CC2CCCCN2C(=O)c2ccnc(N(C)C)c2)c1 (centres undefined) | -17.7%
CC(C)c1nc(C2CCCN(C(=O)c3ccc4[nH]cnc4c3)C2)no1 (centres undefined) | -18.2%
CCc1nc(C2CCCN(C(=O)c3ccc(OC(C)C)nc3)C2)no1 (centres undefined) | 17.6%
CC(C)c1nc(C2CCCN(C(=O)c3ccc4nccn4c3)C2)no1 (centres undefined) | -3.59%
CCn1cc(NC(=O)NCC(O)CN2CCCCC2)cn1 (centres undefined) | -14.9%
CCc1nc(C2CCCN(C(=O)c3ccc4[nH]nnc4c3)C2)no1 (centres undefined) | -11%
O=C(c1ccc(-n2cccn2)nc1)N1CCCN(c2cccnn2)CC1 | -14.8%
O=C(c1ccn(-c2cccc(F)c2)n1)N1CCCC(n2cccn2)C1 (centres undefined) | -15.2%
COCc1nc(C(=O)N2CCCCC2Cn2cc(C)cn2)cs1 (centres undefined) | 16.8%
Cc1nc(CN2CCN(C(=O)c3sccc3C3CC3)CC2)cs1 | -13%
CCn1c(C)nnc1CN(C)C1CCN(CCn2cccn2)C1 (centres undefined) | 7.42%
COc1c(CNCc2ccc(C(=O)N(C)C)cc2)c(C)nn1C | 0.637%
CCc1ccc(OCC(O)CN2CCN(CCO)CC2)cc1 (centres undefined) | -3.3%
